This note sets out measurements from patent US20050282743A1, “Molecular interactions in cells” (Arbor Vita Corporation, priority 2001, published 2005).

Ends that are not written are not given here. Peptide text beside a SMILES is read from it. * marks the point of attachment. Biotin = O=C1N[C@H]2[C@H](CS[C@H]2CCCCC(=O)*)N1

Common to all, as to assay: G' assay (10 uM PL peptide), results of TABLE 7 and TABLE 12
Holding throughout (type): binding

Test [1] addresses T1, PDZ protein (GST-PDZ fusion) (Homo sapiens, UniProt O75970).
T1 construct: made in house; host or cells: E. coli (DH5alpha, BL21 or JM109)
The procedure, abridged:
(§1)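 Binding classes derive from A450 nm of bound biotin-tagged PL peptide. A score of 5 needs A450 above 4 in more than two repeats.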

Test [2] addresses T2, PDZ protein (GST-PDZ fusion) (Homo sapiens, UniProt Q12923).
T2 construct: made in house; host or cells: E. coli (DH5alpha, BL21 or JM109)
In a few lines:
as §1

Test [3] concerns the target T3, PDZ protein (GST-PDZ fusion) (Homo sapiens, UniProt Q5TCQ9).
T3 construct: made in house; host or cells: E. coli (DH5alpha, BL21 or JM109)
T3 sequence (Q5TCQ9 1-1481): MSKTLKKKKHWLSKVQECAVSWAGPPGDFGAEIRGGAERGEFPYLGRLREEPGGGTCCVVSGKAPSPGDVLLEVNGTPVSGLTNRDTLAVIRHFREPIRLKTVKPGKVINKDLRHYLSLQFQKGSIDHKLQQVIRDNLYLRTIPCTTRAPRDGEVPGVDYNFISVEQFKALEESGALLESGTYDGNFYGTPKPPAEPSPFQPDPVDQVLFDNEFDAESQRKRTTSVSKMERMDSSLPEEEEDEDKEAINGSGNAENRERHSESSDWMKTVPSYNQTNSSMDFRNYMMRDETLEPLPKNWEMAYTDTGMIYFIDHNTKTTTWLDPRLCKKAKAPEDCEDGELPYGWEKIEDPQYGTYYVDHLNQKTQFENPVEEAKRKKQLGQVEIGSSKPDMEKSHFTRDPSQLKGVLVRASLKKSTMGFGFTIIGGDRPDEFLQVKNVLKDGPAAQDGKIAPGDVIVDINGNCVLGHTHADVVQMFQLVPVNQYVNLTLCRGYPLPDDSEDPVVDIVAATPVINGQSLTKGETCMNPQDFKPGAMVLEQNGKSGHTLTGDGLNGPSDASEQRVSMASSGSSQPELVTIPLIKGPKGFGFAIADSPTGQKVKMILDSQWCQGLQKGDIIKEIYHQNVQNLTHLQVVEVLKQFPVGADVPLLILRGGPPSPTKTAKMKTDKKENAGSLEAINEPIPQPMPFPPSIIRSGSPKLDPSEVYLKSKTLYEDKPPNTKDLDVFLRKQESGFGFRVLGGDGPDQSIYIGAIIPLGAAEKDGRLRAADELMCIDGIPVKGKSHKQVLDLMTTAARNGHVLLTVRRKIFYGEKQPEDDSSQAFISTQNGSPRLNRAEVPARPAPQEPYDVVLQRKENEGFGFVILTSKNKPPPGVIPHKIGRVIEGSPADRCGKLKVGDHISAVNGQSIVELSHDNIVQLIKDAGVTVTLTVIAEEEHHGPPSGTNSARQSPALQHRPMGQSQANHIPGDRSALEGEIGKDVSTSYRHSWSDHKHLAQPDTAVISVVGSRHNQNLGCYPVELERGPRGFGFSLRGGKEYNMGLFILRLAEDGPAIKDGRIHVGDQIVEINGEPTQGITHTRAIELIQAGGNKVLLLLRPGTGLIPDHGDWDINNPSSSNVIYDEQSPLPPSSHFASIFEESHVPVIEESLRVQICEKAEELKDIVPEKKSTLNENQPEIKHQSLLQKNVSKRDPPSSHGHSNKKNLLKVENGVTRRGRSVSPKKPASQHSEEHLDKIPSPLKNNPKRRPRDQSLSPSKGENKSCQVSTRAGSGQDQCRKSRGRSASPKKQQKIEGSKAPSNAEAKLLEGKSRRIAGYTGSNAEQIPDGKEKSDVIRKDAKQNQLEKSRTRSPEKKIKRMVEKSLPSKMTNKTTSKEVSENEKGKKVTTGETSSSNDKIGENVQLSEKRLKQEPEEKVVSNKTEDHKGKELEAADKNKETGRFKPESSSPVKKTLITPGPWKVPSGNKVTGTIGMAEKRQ
In a few lines: as §1

Test [4] relates to PDZ protein (GST-PDZ fusion). The procedure, abridged:
as §1

Setting [5] is: PDZ HEMBA 1003117, PDZ Domain 1.

T2 sequence (Q12923 whole entry, the tested form may be a part): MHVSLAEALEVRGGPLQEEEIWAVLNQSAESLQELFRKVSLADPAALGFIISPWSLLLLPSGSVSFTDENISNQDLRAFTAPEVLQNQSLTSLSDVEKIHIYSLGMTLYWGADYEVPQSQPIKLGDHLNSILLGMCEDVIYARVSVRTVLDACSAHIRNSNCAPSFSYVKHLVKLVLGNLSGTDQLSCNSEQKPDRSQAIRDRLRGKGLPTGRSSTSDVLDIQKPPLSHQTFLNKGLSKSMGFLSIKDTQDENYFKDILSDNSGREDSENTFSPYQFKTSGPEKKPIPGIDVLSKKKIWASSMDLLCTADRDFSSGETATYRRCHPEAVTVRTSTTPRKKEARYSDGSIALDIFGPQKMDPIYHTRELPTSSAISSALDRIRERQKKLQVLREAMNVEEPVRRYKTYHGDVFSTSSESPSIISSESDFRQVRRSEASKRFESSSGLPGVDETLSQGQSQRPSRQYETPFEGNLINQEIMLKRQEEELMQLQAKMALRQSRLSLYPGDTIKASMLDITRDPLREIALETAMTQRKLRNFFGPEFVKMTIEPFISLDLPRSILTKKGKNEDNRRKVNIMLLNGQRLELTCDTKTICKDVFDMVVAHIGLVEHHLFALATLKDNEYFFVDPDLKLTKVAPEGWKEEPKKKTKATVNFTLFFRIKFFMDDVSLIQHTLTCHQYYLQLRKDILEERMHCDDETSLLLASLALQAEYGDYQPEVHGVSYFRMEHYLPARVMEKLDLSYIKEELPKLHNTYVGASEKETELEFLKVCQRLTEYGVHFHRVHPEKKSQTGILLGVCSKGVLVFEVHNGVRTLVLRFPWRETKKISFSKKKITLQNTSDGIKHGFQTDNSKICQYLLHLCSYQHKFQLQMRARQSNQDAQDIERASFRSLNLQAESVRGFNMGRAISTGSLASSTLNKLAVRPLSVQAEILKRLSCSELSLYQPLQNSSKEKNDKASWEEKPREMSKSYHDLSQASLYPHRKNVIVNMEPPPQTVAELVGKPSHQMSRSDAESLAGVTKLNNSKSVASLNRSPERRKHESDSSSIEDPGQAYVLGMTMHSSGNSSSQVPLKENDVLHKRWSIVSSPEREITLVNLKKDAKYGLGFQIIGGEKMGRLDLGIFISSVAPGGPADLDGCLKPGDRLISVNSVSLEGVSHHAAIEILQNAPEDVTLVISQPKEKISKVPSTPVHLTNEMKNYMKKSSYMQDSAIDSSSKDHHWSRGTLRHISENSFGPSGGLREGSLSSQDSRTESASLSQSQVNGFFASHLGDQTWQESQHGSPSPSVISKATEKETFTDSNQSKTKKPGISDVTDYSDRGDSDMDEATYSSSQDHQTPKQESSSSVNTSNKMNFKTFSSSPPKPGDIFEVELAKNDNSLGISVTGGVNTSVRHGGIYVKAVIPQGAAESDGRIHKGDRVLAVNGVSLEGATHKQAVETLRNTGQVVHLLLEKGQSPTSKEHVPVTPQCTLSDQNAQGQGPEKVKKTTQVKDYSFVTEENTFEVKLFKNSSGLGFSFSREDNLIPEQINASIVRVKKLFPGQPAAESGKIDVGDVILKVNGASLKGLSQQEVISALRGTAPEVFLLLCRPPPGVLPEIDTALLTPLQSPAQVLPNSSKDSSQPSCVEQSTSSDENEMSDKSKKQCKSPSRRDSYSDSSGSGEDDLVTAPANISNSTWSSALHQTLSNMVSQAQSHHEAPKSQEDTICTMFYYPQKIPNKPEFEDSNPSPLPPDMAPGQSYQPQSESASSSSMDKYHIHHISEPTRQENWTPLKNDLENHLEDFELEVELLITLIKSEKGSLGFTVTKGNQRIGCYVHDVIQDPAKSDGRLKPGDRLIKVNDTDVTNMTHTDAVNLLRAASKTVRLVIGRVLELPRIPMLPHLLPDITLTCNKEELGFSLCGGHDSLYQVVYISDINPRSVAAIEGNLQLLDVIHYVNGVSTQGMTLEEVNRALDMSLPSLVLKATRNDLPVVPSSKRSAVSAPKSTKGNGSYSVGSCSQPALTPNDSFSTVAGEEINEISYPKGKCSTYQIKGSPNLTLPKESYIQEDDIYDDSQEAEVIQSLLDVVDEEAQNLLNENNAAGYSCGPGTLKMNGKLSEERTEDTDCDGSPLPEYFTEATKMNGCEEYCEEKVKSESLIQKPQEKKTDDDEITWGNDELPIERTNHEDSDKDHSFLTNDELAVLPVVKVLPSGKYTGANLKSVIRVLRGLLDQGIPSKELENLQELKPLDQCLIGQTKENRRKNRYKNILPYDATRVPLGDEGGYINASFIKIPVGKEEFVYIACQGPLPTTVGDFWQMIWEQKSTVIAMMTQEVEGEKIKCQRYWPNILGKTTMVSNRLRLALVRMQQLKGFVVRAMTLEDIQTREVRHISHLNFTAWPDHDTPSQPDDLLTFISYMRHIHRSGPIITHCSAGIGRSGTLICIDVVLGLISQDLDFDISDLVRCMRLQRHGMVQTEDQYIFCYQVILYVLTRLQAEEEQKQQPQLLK
T1 sequence (O75970 whole entry, the tested form may be a part): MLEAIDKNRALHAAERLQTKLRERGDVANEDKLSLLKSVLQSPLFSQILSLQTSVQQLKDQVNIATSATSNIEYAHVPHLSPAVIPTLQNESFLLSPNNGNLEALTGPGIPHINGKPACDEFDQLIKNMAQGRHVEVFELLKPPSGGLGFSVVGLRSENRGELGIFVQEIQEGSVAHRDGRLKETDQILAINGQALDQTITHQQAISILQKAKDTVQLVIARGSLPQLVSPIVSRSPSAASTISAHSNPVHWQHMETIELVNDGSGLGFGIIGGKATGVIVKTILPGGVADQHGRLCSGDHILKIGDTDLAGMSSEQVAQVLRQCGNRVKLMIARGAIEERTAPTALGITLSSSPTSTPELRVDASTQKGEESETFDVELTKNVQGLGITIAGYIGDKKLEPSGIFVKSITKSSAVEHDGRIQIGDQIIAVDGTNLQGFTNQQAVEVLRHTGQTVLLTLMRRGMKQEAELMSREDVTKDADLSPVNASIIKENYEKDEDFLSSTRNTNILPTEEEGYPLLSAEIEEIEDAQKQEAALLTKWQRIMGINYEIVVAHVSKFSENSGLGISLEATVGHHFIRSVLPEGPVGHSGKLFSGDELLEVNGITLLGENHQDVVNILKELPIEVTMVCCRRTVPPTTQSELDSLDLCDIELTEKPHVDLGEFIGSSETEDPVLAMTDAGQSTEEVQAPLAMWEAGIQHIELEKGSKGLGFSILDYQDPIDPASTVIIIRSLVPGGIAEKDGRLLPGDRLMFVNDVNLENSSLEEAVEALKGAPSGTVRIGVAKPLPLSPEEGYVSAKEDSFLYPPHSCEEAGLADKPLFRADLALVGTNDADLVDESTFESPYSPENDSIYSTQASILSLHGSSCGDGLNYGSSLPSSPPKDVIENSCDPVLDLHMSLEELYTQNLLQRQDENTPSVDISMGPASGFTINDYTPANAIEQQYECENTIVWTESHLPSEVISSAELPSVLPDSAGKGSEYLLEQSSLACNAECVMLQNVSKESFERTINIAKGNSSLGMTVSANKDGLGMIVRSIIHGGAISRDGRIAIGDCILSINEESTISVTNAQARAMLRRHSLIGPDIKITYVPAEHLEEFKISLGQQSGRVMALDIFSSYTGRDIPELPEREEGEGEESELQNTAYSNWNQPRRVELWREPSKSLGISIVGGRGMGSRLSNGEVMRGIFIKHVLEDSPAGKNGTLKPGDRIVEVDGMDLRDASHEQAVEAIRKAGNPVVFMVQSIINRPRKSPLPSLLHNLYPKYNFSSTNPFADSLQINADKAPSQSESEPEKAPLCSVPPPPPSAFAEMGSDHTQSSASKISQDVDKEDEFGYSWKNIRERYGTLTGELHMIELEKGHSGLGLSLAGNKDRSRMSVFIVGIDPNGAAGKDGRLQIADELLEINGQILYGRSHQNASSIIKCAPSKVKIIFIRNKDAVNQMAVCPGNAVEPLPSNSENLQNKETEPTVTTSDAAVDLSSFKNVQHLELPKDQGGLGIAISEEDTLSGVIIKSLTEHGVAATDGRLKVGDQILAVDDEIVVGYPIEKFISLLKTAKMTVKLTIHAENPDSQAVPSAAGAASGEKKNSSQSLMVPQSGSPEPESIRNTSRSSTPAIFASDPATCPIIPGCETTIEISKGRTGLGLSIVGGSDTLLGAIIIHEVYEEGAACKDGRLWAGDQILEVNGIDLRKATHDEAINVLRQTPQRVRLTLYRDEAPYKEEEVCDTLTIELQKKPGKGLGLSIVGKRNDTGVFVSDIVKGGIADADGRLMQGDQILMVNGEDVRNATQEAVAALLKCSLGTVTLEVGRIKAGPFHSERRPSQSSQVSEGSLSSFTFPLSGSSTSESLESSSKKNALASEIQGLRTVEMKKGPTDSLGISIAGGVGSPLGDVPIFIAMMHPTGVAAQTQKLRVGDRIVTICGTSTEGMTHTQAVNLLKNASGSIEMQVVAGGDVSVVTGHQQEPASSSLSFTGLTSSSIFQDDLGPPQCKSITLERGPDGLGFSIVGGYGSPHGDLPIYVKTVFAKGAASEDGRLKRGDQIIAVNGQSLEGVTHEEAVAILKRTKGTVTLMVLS

Turning to `CSCC[C@H](NC(=O)[C@H](C)NC(=O)[C@H](CCCNC(=N)N)NC(=O)CNC(=O)[C@@H](NC(=O)[C@H](Cc1c[nH]c2ccccc12)NC(=O)[C@H](CCCNC(=N)N)NC(=O)CNC(=O)CCCC[C@@H]1SC[C@@H]2NC(=O)N[C@@H]21)[C@@H](C)O)C(=O)N[C@@H](CO)C(=O)N[C@@H](C)C(=O)N[C@@H](Cc1c[nH]c2ccccc12)C(=O)N[C@@H](CCCCN)C(=O)N1CCC[C@H]1C(=O)N[C@H](C(=O)N[C@@H](CCCNC(=N)N)C(=O)N[C@@H](CCCNC(=N)N)C(=O)N[C@@H](CCC(=O)O)C(=O)N[C@H](C(=O)N[C@@H](CCC(=O)O)C(=O)N[C@H](C(=O)O)C(C)C)[C@@H](C)O)[C@@H](C)O` [HPV E6 #35 (modified)] (Biotin-GRWTGRAMSAWKPTRRETEV-OH; C-terminus assumed), the Classification in test [1] (PDZ MUPP-1, PDZ Domain 5) is 2 (A450 nm 1-2); in test [1] (PDZ MUPP-1, PDZ Domain 10) it was 4 (A450 nm 3-4); in test [1] (PDZ MUPP-1, PDZ Domain 13), 5 (A450 nm of 4 more than 2× repeated); in test [2] (PDZ PTPL-1, PDZ Domain 2) it was 2 (A450 nm 1-2); in test [2] (PDZ PTPL-1, PDZ Domain 4) it was 1 (A450 nm 0-1); in test [3] (PDZ KIAA1634, PDZ Domain 1), 5 (A450 nm of 4 more than 2× repeated). The Classification is given as 3 (A450 nm 2-3) in test [3] (PDZ KIAA1634, PDZ Domain 2); 2 (A450 nm 1-2) in test [3] (PDZ KIAA1634, PDZ Domain 4); 3 (A450 nm 2-3) in test [3] (PDZ KIAA1634, PDZ Domain 5); 5 (A450 nm of 4 more than 2× repeated) in test [4] (PDZ BAI-1, PDZ Domain 2); 4 (A450 nm 3-4) in test [4] (PDZ BAI-1, PDZ Domain 3); 5 (A450 nm of 4 more than 2× repeated) in test [4] (PDZ BAI-1, PDZ Domain 4). Moreover, the Classification in test [4] (PDZ BAI-1, PDZ Domain 5) is reported as 5 (A450 nm of 4 more than 2× repeated); in test [4] (PDZ BAI-1, PDZ Domain 6) it was 3 (A450 nm 2-3); in test [4] (PDZ Connector Enhancer, PDZ Domain 1), 1 (A450 nm 0-1); in test [4] (PDZ FLJ 00011, PDZ Domain 1) it was 3 (A450 nm 2-3); in test [4] (PDZ FLJ 11215, PDZ Domain 1) it was 4 (A450 nm 3-4); in test [4] (setting [5]) it was 1 (A450 nm 0-1).

On to `CC(C)C[C@H](NC(=O)[C@H](C)NC(=O)[C@H](CO)NC(=O)CNC(=O)[C@@H](NC(=O)CCCC[C@@H]1SC[C@@H]2NC(=O)N[C@@H]21)[C@@H](C)O)C(=O)N[C@@H](CCC(N)=O)C(=O)N[C@@H](C)C(=O)N[C@@H](Cc1c[nH]c2ccccc12)C(=O)N[C@@H](CCCNC(=N)N)C(=O)N[C@@H](Cc1c[nH]cn1)C(=O)N[C@H](C(=O)N[C@@H](CO)C(=O)N[C@@H](CCCNC(=N)N)C(=O)N[C@@H](CCC(N)=O)C(=O)N[C@@H](C)C(=O)N[C@H](C(=O)N[C@@H](CCC(=O)O)C(=O)N[C@@H](CO)C(=O)N[C@H](C(=O)N[C@H](C(=O)O)C(C)C)[C@@H](C)O)[C@@H](C)O)[C@@H](C)O` [HPV E6 #66 (modified)] (Biotin-TGSALQAWRHTSRQATESTV-OH; C-terminus assumed), for which the Classification in test [1] (PDZ MUPP-1, PDZ Domain 10) is listed as 1 (A450 nm 0-1); in test [1] (PDZ MUPP-1, PDZ Domain 13), 3 (A450 nm 2-3); in test [2] (PDZ PTPL-1, PDZ Domain 2), 3 (A450 nm 2-3); in test [3] (PDZ KIAA1634, PDZ Domain 1) it was 5 (A450 nm of 4 more than 2× repeated); in test [3] (PDZ KIAA1634, PDZ Domain 2), 1 (A450 nm 0-1); in test [4] (PDZ BAI-1, PDZ Domain 2) it was 5 (A450 nm of 4 more than 2× repeated). Besides, the Classification in test [4] (PDZ BAI-1, PDZ Domain 3) is given as 1 (A450 nm 0-1); in test [4] (PDZ BAI-1, PDZ Domain 5), 1 (A450 nm 0-1); in test [4] (PDZ FLJ 00011, PDZ Domain 1), 1 (A450 nm 0-1).

On to “ISGTPTSTMVHGMTSSSSVV (Biotin-ISGTPTSTMVHGMTSSSSVV) [Clasp-2]”, for which the Classification in test [1] (PDZ MUPP-1, PDZ Domain 10) was 1 (A450 nm 0-1); in test [1] (PDZ MUPP-1, PDZ Domain 13) it was 1 (A450 nm 0-1); in test [2] (PDZ PTPL-1, PDZ Domain 2), 1 (A450 nm 0-1); in test [3] (PDZ KIAA1634, PDZ Domain 1), 1 (A450 nm 0-1); in test [3] (PDZ KIAA1634, PDZ Domain 2), 1 (A450 nm 0-1); in test [4] (PDZ BAI-1, PDZ Domain 2), 1 (A450 nm 0-1). In addition, in test [4] (PDZ BAI-1, PDZ Domain 5), the Classification was 1 (A450 nm 0-1).

As for `CC[C@H](C)[C@H](NC(=O)[C@H](CCC(N)=O)NC(=O)[C@@H](NC(=O)[C@H](Cc1c[nH]cn1)NC(=O)[C@H](CCC(N)=O)NC(=O)[C@H](CC(=O)O)NC(=O)[C@H](CCC(=O)O)NC(=O)[C@H](CC(=O)O)NC(=O)[C@H](Cc1ccccc1)NC(=O)[C@@H]1CCCN1C(=O)[C@H](CCC(=O)O)NC(=O)[C@H](CC(N)=O)NC(=O)[C@H](CCC(=O)O)NC(=O)[C@@H]1CCCN1C(=O)[C@H](CC(=O)O)NC(=O)[C@H](CO)NC(=O)[C@H](CC(=O)O)NC(=O)CCCC[C@@H]1SC[C@@H]2NC(=O)N[C@@H]21)[C@@H](C)O)C(=O)N[C@H](C(=O)N[C@@H](CCCCN)C(=O)N[C@H](C(=O)O)C(C)C)[C@@H](C)O` [PTEN], the Classification in test [1] (PDZ MUPP-1, PDZ Domain 13) is on record as 5 (A450 nm of 4 more than 2× repeated); in test [2] (PDZ PTPL-1, PDZ Domain 2) it was 4 (A450 nm 3-4); in test [2] (PDZ PTPL-1, PDZ Domain 4), 1 (A450 nm 0-1); in test [3] (PDZ KIAA1634, PDZ Domain 2), 5 (A450 nm of 4 more than 2× repeated); in test [4] (PDZ BAI-1, PDZ Domain 3), 2 (A450 nm 1-2); in test [4] (PDZ FLJ 00011, PDZ Domain 1) it was 3 (A450 nm 2-3). Further, the Classification is listed as 1 (A450 nm 0-1) in test [4] (setting [5]) and 3 (A450 nm 2-3) in test [4] (PDZ SHANK, PDZ Domain 1).

“ELLQFCRTPNPALKNGQYWV (Biotin-ELLQFCRTPNPALKNGQYWV)”: the Classification is on record as 2 (A450 nm 1-2) in test [1] (PDZ MUPP-1, PDZ Domain 1); 5 (A450 nm of 4 more than 2× repeated) in test [1] (PDZ MUPP-1, PDZ Domain 2); 5 (A450 nm of 4 more than 2× repeated) in test [1] (PDZ MUPP-1, PDZ Domain 5); 2 (A450 nm 1-2) in test [1] (PDZ MUPP-1, PDZ Domain 8); 4 (A450 nm 3-4) in test [1] (PDZ MUPP-1, PDZ Domain 10); 5 (A450 nm of 4 more than 2× repeated) in test [1] (PDZ MUPP-1, PDZ Domain 11). The Classification was 1 (A450 nm 0-1) in test [1] (PDZ MUPP-1, PDZ Domain 12); 5 (A450 nm of 4 more than 2× repeated) in test [2] (PDZ PTPL-1, PDZ Domain 4); 5 (A450 nm of 4 more than 2× repeated) in test [3] (PDZ KIAA1634, PDZ Domain 1); 2 (A450 nm 1-2) in test [3] (PDZ KIAA1634, PDZ Domain 5); 2 (A450 nm 1-2) in test [4] (PDZ BAI-1, PDZ Domain 2); 4 (A450 nm 3-4) in test [4] (PDZ BAI-1, PDZ Domain 6). In test [4] (setting [5]), the Classification is 5 (A450 nm of 4 more than 2× repeated).
